In US20240101544A1, “INHIBITORS OF QPCTL AND QPCT” (priority 2022, published 2024) one finds IC50 data, which are given here for 21 compounds.

Molecules are shown by their SMILES.

Assay [1] addresses T1, QPCTL (Homo sapiens (Human), UniProt Q9NXS2). Briefly: QPCTL Enzymatic Activity Assay (coupled-enzyme fluorescent assay, H-Gln-AMC substrate). To be noted: recombinant truncated human QPCTL 10-12 nM, 10 μM H-Gln-AMC; read-out: QPCTL Inhibition IC50. In kind it is biochemical.
Target sequence in this assay (Q9NXS2 53-382): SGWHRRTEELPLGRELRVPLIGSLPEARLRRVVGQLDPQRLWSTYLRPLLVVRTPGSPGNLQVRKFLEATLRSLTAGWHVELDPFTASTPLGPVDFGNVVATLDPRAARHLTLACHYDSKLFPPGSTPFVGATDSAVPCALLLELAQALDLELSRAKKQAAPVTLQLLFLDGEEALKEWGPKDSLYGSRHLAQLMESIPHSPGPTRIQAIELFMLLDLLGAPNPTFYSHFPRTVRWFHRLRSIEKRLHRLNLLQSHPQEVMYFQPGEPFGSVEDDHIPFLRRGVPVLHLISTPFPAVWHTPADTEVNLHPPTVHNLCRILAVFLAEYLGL
The target in assay [2] is T1, QPCTL. Briefly: Inhibition of Cellular QPCTL Activity - FACS flow cytometry, CC2C6 anti-CD47 staining of Ramos cells. Format: cell-based. The settings on record: Ramos human Burkitts Lymphoma cells, 72-96 hours, % CC2C6-positive cells. The method, then:
Inhibition of Cellular QPCTL Activity—Fluorescence-Activated Cell Sorting (FACS) Flow Cytometry
The cells were incubated for 72-96 hours at 37° C. and 5% CO2. At the end of incubation period, cells were transferred to tubes and spun down at 1200 rpm for 5 minutes. […] After antibody staining, the cells were washed with FACS buffer then stained with SYTOX™ Blue dead cell stain at a dilution of 1:1000. Cells were analyzed on a BD FACS Melody and a positive staining gate on live cells was set using the 0.1% DMSO controls. […] Flow cytometry data were analyzed by FlowJo software and concentration-response-curves and IC50 values were generated using Collaborative Drug Discovery software.
Target sequence in this assay (Q9NXS2 whole entry, the tested form may be a part): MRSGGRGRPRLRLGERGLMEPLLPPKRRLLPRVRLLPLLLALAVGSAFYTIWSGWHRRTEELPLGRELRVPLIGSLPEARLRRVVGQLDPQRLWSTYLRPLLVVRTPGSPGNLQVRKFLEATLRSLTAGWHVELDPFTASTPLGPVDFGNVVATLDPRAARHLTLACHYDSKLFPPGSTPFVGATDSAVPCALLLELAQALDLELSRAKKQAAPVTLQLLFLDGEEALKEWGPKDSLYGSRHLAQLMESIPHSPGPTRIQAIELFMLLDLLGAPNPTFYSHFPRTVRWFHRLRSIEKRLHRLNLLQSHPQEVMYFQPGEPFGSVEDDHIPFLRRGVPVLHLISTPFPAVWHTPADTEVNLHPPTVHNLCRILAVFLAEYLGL

The target in a further assay is QPCT (rhQPCT) (Homo sapiens (Human), UniProt Q16769). Description: QPCT Enzymatic Activity Assay (coupled-enzyme fluorescent assay, H-Gln-AMC substrate). Format: biochemical. To be noted: rhQPCT 10-12 nM, 10 μM H-Gln-AMC; read-out: QPCT Inhibition IC50. In short, it runs like this: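 Coupled assay: recombinant human QPCT converts H-Gln-AMC (10 μM final) to pyroglutamyl-AMC, 60 min at 37 °C, stopped by boiling; PGPEP-1 then releases AMC.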
QPCT (rhQPCT), sequence (Q16769 29-361): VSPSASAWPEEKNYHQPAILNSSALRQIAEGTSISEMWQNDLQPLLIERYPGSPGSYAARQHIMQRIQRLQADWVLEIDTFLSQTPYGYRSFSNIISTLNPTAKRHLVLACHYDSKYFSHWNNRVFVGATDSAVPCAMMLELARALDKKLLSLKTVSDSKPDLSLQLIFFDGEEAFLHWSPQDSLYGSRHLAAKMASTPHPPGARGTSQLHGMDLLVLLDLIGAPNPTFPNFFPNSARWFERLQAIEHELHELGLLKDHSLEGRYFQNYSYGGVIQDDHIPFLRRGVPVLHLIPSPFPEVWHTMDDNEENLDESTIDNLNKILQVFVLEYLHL

Assay [3] has as its target T1, QPCTL. Briefly: Inhibition of Cellular QPCTL Activity - Imaging Assay, CC2C6 anti-CD47 staining of DLD-1 cells. In kind it is cell-based. To be noted: 72 hours, CC2C6 anti-CD47 high-content imaging. How it is done: Inhibition of Cellular QPCTL Activity—Imaging Assay
The cells were incubated for 72 hours at 37° C. and 5% CO2. […] After primary antibody staining, the cells were fixed with 4% paraformaldehyde in the incubation buffer for 15 minutes at room temperature. […] Cells were analyzed on a ImageXpress Pico Automated Cell Imaging System (Molecular Devices) using 10× objective (3×3 fields).
Target sequence in this assay (Q9NXS2 whole entry, the tested form may be a part): as the sequence (Q9NXS2 whole entry, the tested form may be a part) above

Regarding `Cn1cnnc1C1CCN(c2c(C#N)cccc2-c2cncc3c2ccn3C)CC1` [Example 12, 3-{1-methyl-1H-pyrrolo[2,3-c]pyridin-4-yl}-2-[4-(4-methyl-4H-1,2,4-triazol-3-yl)piperidin-1-yl]benzonitrile], the IC50 at QPCTL [1] is less than 0.1 µM; at QPCTL [2], 1 to 10 µM; on QPCT (rhQPCT) it was less than 0.1 µM.

On to `CN(C)CCOc1ccc(-c2ccc(F)nc2)c(N2CCC(c3nncn3C)CC2)c1C#N` [Example 37, 6-[2-(dimethylamino)ethoxy]-3-(6-fluoropyridin-3-yl)-2-[4-(4-methyl-4H-1,2,4-triazol-3-yl)piperidin-1-yl]benzonitrile], for which the IC50 at QPCTL [1], against QPCTL [2] and on QPCT (rhQPCT) was less than 0.1 µM throughout.

`Cn1cnnc1C1CCN(c2c(C#N)cccc2-c2ccc(OCCO)nc2)CC1` [Example 6, 3-[6-(2-hydroxyethoxy)pyridin-3-yl]-2-[4-(4-methyl-4H-1,2,4-triazol-3-yl)piperidin-1-yl]benzonitrile]: the IC50 at QPCTL [1] is less than 0.1 µM; against QPCTL [2], 1 to 10 µM; on QPCT (rhQPCT) it was less than 0.1 µM.

As to `Cn1cnnc1C1CCN(c2c(C#N)cccc2-c2ccnnc2)CC1` [Example 11, 2-[4-(4-methyl-4H-1,2,4-triazol-3-yl)piperidin-1-yl]-3-(pyridazin-4-yl)benzonitrile], the IC50 at QPCTL [1], at QPCTL [2] and on QPCT (rhQPCT) was less than 0.1 µM throughout.

On to `Cn1cc(-c2ccc(-c3ccc(F)nc3)c(N3CCC(c4nncn4C)CC3)c2C#N)cn1` [Example 35, 3-(6-fluoropyridin-3-yl)-6-(1-methyl-1H-pyrazol-4-yl)-2-[4-(4-methyl-4H-1,2,4-triazol-3-yl)piperidin-1-yl]benzonitrile], for which the IC50 against QPCTL [3], on QPCTL [1], at QPCTL [2] and on QPCT (rhQPCT) was less than 0.1 µM in each case.

As to `Cn1cnnc1C1CCN(c2c(C#N)cccc2-c2cnccc2OCCO)CC1` [Example 9, 3-[4-(2-hydroxyethoxy)pyridin-3-yl]-2-[4-(4-methyl-4H-1,2,4-triazol-3-yl)piperidin-1-yl]benzonitrile], the IC50 at QPCTL [1] is less than 0.1 µM; at QPCTL [2], 1 to 10 µM; on QPCT (rhQPCT) it was less than 0.1 µM.

`Cn1cnnc1C1CCN(c2c(C#N)cccc2-c2cncc3c2cnn3C)CC1` [Example 4, 3-{1-methyl-1H-pyrazolo[3,4-c]pyridin-4-yl}-2-[4-(4-methyl-4H-1,2,4-triazol-3-yl)piperidin-1-yl]benzonitrile]: the IC50 fell in the range of 0.1 to 1 µM at QPCTL [1], 1 to 10 µM against QPCTL [2] and 0.1 to 1 µM at QPCT (rhQPCT).

On to `Cn1cnnc1C1CCN(c2c(C#N)cccc2-c2cnc(=O)n(C)c2)CC1` [Example 34, 3-(1-methyl-2-oxo-1,2-dihydropyrimidin-5-yl)-2-[4-(4-methyl-4H-1,2,4-triazol-3-yl)piperidin-1-yl]benzonitrile], for which the IC50 at QPCTL [3] was 0.1 to 1 µM; at QPCTL [1] it was less than 0.1 µM; against QPCTL [2], 1 to 10 µM; at QPCT (rhQPCT), less than 0.1 µM.

Consider `COc1ccncc1-c1ccc(Cl)c(C#N)c1N1CCC(c2nncn2C)CC1` [Example 27, 6-chloro-3-(4-methoxypyridin-3-yl)-2-[4-(4-methyl-4H-1,2,4-triazol-3-yl)piperidin-1-yl]benzonitrile], for which the results for the IC50 at QPCTL [1], against QPCTL [2] and on QPCT (rhQPCT) were less than 0.1 µM, 0.1 to 1 µM and less than 0.1 µM, respectively.

For `COc1ccc(-c2ccc(F)nc2)c(N2CCC(c3nncn3C)CC2)c1C#N` [Example 24, 3-(6-fluoropyridin-3-yl)-6-methoxy-2-[4-(4-methyl-4H-1,2,4-triazol-3-yl)piperidin-1-yl]benzonitrile], the IC50 on QPCTL [3], on QPCTL [1], on QPCTL [2] and at QPCT (rhQPCT) was less than 0.1 µM in each case.

In the case of `Cn1cnnc1C1CCN(c2c(C#N)cccc2-c2cnccc2Cl)CC1` [Example 10, 3-(4-chloropyridin-3-yl)-2-[4-(4-methyl-4H-1,2,4-triazol-3-yl)piperidin-1-yl]benzonitrile], the IC50 is less than 0.1 µM on QPCTL [1], 0.1 to 1 µM against QPCTL [2] and less than 0.1 µM on QPCT (rhQPCT).

Regarding `COc1ccncc1-c1cccc(C#N)c1N1CCC(c2nncn2C)CC1` [Example 3, 3-(4-methoxypyridin-3-yl)-2-[4-(4-methyl-4H-1,2,4-triazol-3-yl)piperidin-1-yl]benzonitrile], the IC50 was less than 0.1 µM at QPCTL [1], 0.1 to 1 µM at QPCTL [2] and less than 0.1 µM at QPCT (rhQPCT).

On to `Cn1cnnc1C1CCN(c2c(C#N)cccc2-c2ccc3nonc3c2)CC1` [Example 19, 3-(2,1,3-benzoxadiazol-5-yl)-2-[4-(4-methyl-4H-1,2,4-triazol-3-yl)piperidin-1-yl]benzonitrile], for which the IC50 is 0.1 to 1 µM at QPCTL [1], 1 to 10 µM on QPCTL [2] and less than 0.1 µM on QPCT (rhQPCT).

For `Cn1cnnc1C1CCN(c2c(C#N)ccc(F)c2-c2ccc(F)nc2)CC1` [Example 38, 4-fluoro-3-(6-fluoropyridin-3-yl)-2-[4-(4-methyl-4H-1,2,4-triazol-3-yl)piperidin-1-yl]benzonitrile], the IC50 at QPCTL [3], on QPCTL [1], at QPCTL [2] and at QPCT (rhQPCT) was less than 0.1 µM each time.

With `COc1ccncc1-c1ccc(OC)c(C#N)c1N1CCC(c2nncn2C)CC1` [Example 25, 6-methoxy-3-(4-methoxypyridin-3-yl)-2-[4-(4-methyl-4H-1,2,4-triazol-3-yl)piperidin-1-yl]benzonitrile], the IC50 was 1 to 10 µM against QPCTL [3], less than 0.1 µM at QPCTL [1], 0.1 to 1 µM against QPCTL [2] and less than 0.1 µM on QPCT (rhQPCT).

Regarding `Cn1cnnc1C1CCN(c2c(C#N)cccc2-c2cccnc2)CC1` [Example 2, 2-[4-(4-methyl-4H-1,2,4-triazol-3-yl)piperidin-1-yl]-3-(pyridin-3-yl)benzonitrile], the IC50 at QPCTL [1] is less than 0.1 µM; against QPCTL [2], 0.1 to 1 µM; on QPCT (rhQPCT), less than 0.1 µM.

For `Cn1cnnc1C1CCN(c2c(C#N)cccc2-c2ccc3ocnc3c2)CC1` [Example 15, 3-(1,3-benzoxazol-5-yl)-2-[4-(4-methyl-4H-1,2,4-triazol-3-yl)piperidin-1-yl]benzonitrile], the IC50 on QPCTL [1] is 0.1 to 1 µM; against QPCTL [2], 1 to 10 µM; on QPCT (rhQPCT), less than 0.1 µM.

As to `COc1ccc(-c2ccnnc2)c(N2CCC(c3nncn3C)CC2)c1C#N` [Example 26, 6-methoxy-2-[4-(4-methyl-4H-1,2,4-triazol-3-yl)piperidin-1-yl]-3-(pyridazin-4-yl)benzonitrile], the IC50 at QPCTL [1], against QPCTL [2] and at QPCT (rhQPCT) was less than 0.1 µM each time.

On to `Cn1cc2c(-c3cccc(C#N)c3N3CCC(c4nncn4C)CC3)cncc2n1` [Example 16, 3-{2-methyl-2H-pyrazolo[3,4-c]pyridin-4-yl}-2-[4-(4-methyl-4H-1,2,4-triazol-3-yl)piperidin-1-yl]benzonitrile], for which the IC50 at QPCTL [1] is less than 0.1 µM; on QPCTL [2], 0.1 to 1 µM; on QPCT (rhQPCT), less than 0.1 µM.

For `CN(C)CCOc1ccncc1-c1cccc(C#N)c1N1CCC(c2nncn2C)CC1` [Example 8, 3-{4-[2-(dimethylamino)ethoxy]pyridin-3-yl}-2-[4-(4-methyl-4H-1,2,4-triazol-3-yl)piperidin-1-yl]benzonitrile], the results for the IC50 at QPCTL [1], at QPCTL [2] and on QPCT (rhQPCT) were less than 0.1 µM, 1 to 10 µM and less than 0.1 µM, respectively.

For the compound `Cn1cnnc1C1CCN(c2c(C#N)ccc(F)c2-c2ccnnc2)CC1` [Example 39, 4-fluoro-2-[4-(4-methyl-4H-1,2,4-triazol-3-yl)piperidin-1-yl]-3-(pyridazin-4-yl)benzonitrile], the IC50 on QPCTL [1] was less than 0.1 µM; against QPCTL [2], 0.1 to 1 µM; at QPCT (rhQPCT), less than 0.1 µM.

Usually IC50 stands for the midpoint of a concentration-inhibition curve.
